Results on 13 compounds are retold here after patent US20230097090A1, “IMPROVED LIPID NANOPARTICLES FOR DELIVERY OF NUCLEIC ACIDS” (ACUITAS THERAPEUTICS, INC., priority 2019, published 2023).

The data set in a line: pKa of representative cationic lipids. Format: physicochemical.
Setting [1] is: Table 2, lipids of Formula (II).
[2] abbreviates: first Table 12, representative lipid compounds XIII.

Broadly, the pKa is the negative logarithm of the acid dissociation constant. Higher therefore signals a group that holds its proton tightly. `CCCCCCCCC(=O)N(CCCN(C)C)C(CCCCCCCCCOC(=O)C(CCCC)CCCCCC)CCCCCCCCCOC(=O)C(CCCC)CCCCCC` (stereo not shown) [II-17]: under setting [1], the pKa stood at 6.27.
The same measure, in the same setting: for `CCCCC(CCCC)OC(=O)CCCCCCCCC(CCCCCCCCC(=O)OC(CCCC)CCCC)N(CCCN(C)C)C(=O)CCCCCCCC(=O)OC(CCCC)CCCC` [II-24] the value was 6.14.
As for `CCCCCCCCCCN(C(=O)CCCCN(C)C)C(CCCCCCCCC(=O)OCC(CCCC)CCCCCC)CCCCCCCCC(=O)OCC(CCCC)CCCCCC` (stereo not shown) [XIII-7], the pKa under setting [2] is 6.74.
Consider `CCCCCCCCCCN(C(=O)CCCCN(CC)CC)C(CCCCCCCCC(=O)OCC(CCCC)CCCCCC)CCCCCCCCC(=O)OCC(CCCC)CCCCCC` (stereo not shown) [XIII-8], for which, under setting [2], the pKa turned out to be 6.68.
On the same count and under the same terms, for `CCCCCCCCCCN(C(=O)CCCCN1CCCC1)C(CCCCCCCCC(=O)OCC(CCCC)CCCCCC)CCCCCCCCC(=O)OCC(CCCC)CCCCCC` (stereo not shown) [XIII-9] the value was 6.83.
Still for that read-out and setting: to `CCCCCCCCCCN(C(=O)CCCN(C)C)C(CCCCCC(=O)OCC(CCCCCC)CCCCCCCC)CCCCCC(=O)OCC(CCCCCC)CCCCCCCC` (stereo not shown) [XIII-16] belongs 6.77; to `CCCCCCCCCCN(C(=O)CCCN(C)C)C(CCCCCCCCC(=O)OCC(CCCC)CCCCCC)CCCCCCCCC(=O)OCC(CCCC)CCCCCC` (stereo not shown) [XIII-18], 6.47.
Same read-out and setting: to `CCCCCCC(CCCC)COC(=O)CCCCCCCCC(CCCCCCCCC(=O)OCC(CCCC)CCCCCC)N(CC(CC)CCCC)C(=O)CCCN(C)C` (stereo not shown) [XIII-20] belongs 6.84; to `CCCCCCCCCN(C(=O)CCN(C)C)C(CCCCCCCCC(=O)OCC(CCCC)CCCCCC)CCCCCCCCC(=O)OCC(CCCC)CCCCCC` (stereo not shown) [XIII-25], 6.2; to `CCCCCCCCCCN(C(=O)CCCN1CCCC1)C(CCCCCC(=O)OCC(CCCCCC)CCCCCCCC)CCCCCC(=O)OCC(CCCCCC)CCCCCCCC` (stereo not shown) [XIII-29], 6.81.
With `CCCCCCCCCCN(C(=O)CCCCN(CCCC)CCCC)C(CCCCCCCCC(=O)OCC(CCCC)CCCCCC)CCCCCCCCC(=O)OCC(CCCC)CCCCCC` (stereo not shown) [XIII-31], the pKa under setting [2] was 5.05.
On the same count and under the same terms, to `CCCCCCCCCN(C(=O)CCCN(C)C)C(CCCCCCCCCOC(=O)C(CCCC)CCCCCC)CCCCCCCCCOC(=O)C(CCCC)CCCCCC` (stereo not shown) [XIII-32] belongs 6.41; to `CCCCCCCCCCN(C(=O)CCN1CCCC1)C(CCCCCCCCC(=O)OCC(CCCC)CCCCCC)CCCCCCCCC(=O)OCC(CCCC)CCCCCC` (stereo not shown) [XIII-33], 6.19.
